Measurements from ChEMBL document CHEMBL1126372, “Synthesis of L-chiro-inositol 1,4,6-trisphosphorothioate, a potent and selective inhibitor of myo-inositol 1,4,5-trisphosphate 5-phosphatase” (Bioorg Med Chem Lett, 1992).
Calls of active or inactive are those of the source.

Columns and labels:
[1] = Tested for the ability to inhibit dephosphorylation of [3H]Ins(1,4,5)P3 of human erythrocyte membrane Ins(1,4,5)P3 5- phosphatase; format: functional
[2] = Inhibition of [3H]Ins(1,4,5)P3 phosphorylation by crude rat brain Ins(1,4,5)P3 3-kinase at 250 uM (Inactive); format: functional
[3] = Effective concentration required to mobilize [Ca2+] from intracellular stores using electrically permeabilised human neuroblastoma cells; format: functional, cell-based

| SMILES | Ki [1] [µM] | inhibition [2] | EC50 [3] [nM] |
| --- | --- | --- | --- |
| OC1C(O)C(OP(O)(O)=S)C(OP(O)(O)=S)C(O)C1OP(O)(O)=S (stereo in doubt) | 1.7 |  |  |
| OC1C(O)C(OP(O)(O)=S)C(OP(O)(O)=S)C(O)C1OP(O)(O)=S (stereo in doubt; 2) | 350 |  |  |
| O=P(O)(O)OC1C(O)C(O)C(OP(=O)(O)O)C(OP(O)(O)=S)C1O (stereo in doubt) | 6.8 |  |  |
| O=P(O)(O)OC1C(O)C(O)C(OP(=O)(O)O)C(OP(O)(O)=S)C1O (stereo in doubt; 4) | 978 |  |  |
| OC1C(O)C(OP(O)(O)=S)C(OP(O)(O)=S)C(O)C1OP(O)(O)=S (stereo in doubt; 8) [listing 1 of 2 here] |  | inactive |  |
| OC1C(O)C(OP(O)(O)=S)C(OP(O)(O)=S)C(O)C1OP(O)(O)=S (stereo in doubt; 8) [listing 2 of 2 here] | 0.3 |  |  |
| O=P(O)(O)O[C@@H]1[C@H](O)[C@H](O)[C@@H](OP(=O)(O)O)[C@H](OP(=O)(O)O)[C@H]1O [INS(1,4,5)P3] | 44 | inactive | 120 |
